Patent publication US5416081A, “Cephalosporin compounds” (Lucky Limited, priority 1992, dated 1995)
Values after ≈ are worked out from the molar mass of the structure shown. Where two headings read alike, the source gives them in different places.

Experiments:
Format in all cases: cell-based
S. aureus/6538pA = experiment: MIC against standard strain by two-fold agar dilution, S. aureus/6538pA; conditions: Staphylococcus aureus
Method: (§1) These MIC values were taken by employing a two-fold dilution method: that is, two-fold serial dilutions of each of the test compounds were made and dispersed in a Muller-Hinton agar medium; 2 μl of the standard test strain which had the 10^7 CFU(Colony Forming Unit) per ml was inoculated on the medium; and these were incubated at 37° C. for 20 hours.

S. aureus/giorigio = experiment: MIC against standard strain by two-fold agar dilution, S. aureus/giorigio; conditions: Staphylococcus aureus
Method: as §1

S. aureus/77 = experiment: MIC against standard strain by two-fold agar dilution, S. aureus/77; conditions: Staphylococcus aureus
Method: as §1

E. coli/10536 = experiment: MIC against standard strain by two-fold agar dilution, E. coli/10536; conditions: Escherichia coli
Method: as §1

E. coli/3190Y = experiment: MIC against standard strain by two-fold agar dilution, E. coli/3190Y; conditions: Escherichia coli
Method: as §1

E. coli TEM1/1193E = experiment: MIC against standard strain by two-fold agar dilution, E. coli TEM1/1193E; conditions: Escherichia coli, 20 h
Method: as §1

E. coli TEM5/3739E = experiment: MIC against standard strain by two-fold agar dilution, E. coli TEM5/3739E; conditions: Escherichia coli, 20 h
Method: as §1

E. coli TEM9/2639E = experiment: MIC against standard strain by two-fold agar dilution, E. coli TEM9/2639E; conditions: Escherichia coli, 20 h
Method: as §1

P. aeruginosa/1912E = experiment: MIC against standard strain by two-fold agar dilution, P. aeruginosa/1912E; conditions: Pseudomonas aeruginosa
Method: as §1

P. aeruginosa/10145 = experiment: MIC against standard strain by two-fold agar dilution, P. aeruginosa/10145; conditions: Pseudomonas aeruginosa
Method: as §1

P. aeruginosa/6065Y = experiment: MIC against standard strain by two-fold agar dilution, P. aeruginosa/6065Y; conditions: Pseudomonas aeruginosa
Method: as §1

A. calcoaceticus /15473A = experiment: MIC against standard strain by two-fold agar dilution, A. calcoaceticus /15473A; conditions: Acinetobacter calcoaceticus
Method: as §1

E. cloacae/1194E = experiment: MIC against standard strain by two-fold agar dilution, E. cloacae/1194E; conditions: Enterobacter cloacae
Method: as §1

K. aerogenes/1776E = experiment: MIC against standard strain by two-fold agar dilution, K. aerogenes/1776E; conditions: Klebsiella aerogenes
Method: as §1

S. marcescens/1826E = experiment: MIC against standard strain by two-fold agar dilution, S. marcescens/1826E; conditions: Serratia marcescens
Method: as §1

S. typhimunium/14028A = experiment: MIC against standard strain by two-fold agar dilution, S. typhimunium/14028A
Method: as §1

[1] = S. aureus/6538pA, Muller-Hinton agar, 37° C., 20 hours, read-out: MIC
[2] = S. aureus/giorigio, Muller-Hinton agar, 37° C., 20 hours, read-out: MIC
[3] = S. aureus/77, Muller-Hinton agar, 37° C., 20 hours, read-out: MIC
[4] = E. coli/10536, Muller-Hinton agar, 37° C., 20 hours, read-out: MIC
[5] = E. coli/3190Y, Muller-Hinton agar, 37° C., 20 hours, read-out: MIC
[6] = P. aeruginosa/1912E, Muller-Hinton agar, 37° C., 20 hours, read-out: MIC
[7] = P. aeruginosa/10145, Muller-Hinton agar, 37° C., 20 hours, read-out: MIC
[8] = P. aeruginosa/6065Y, Muller-Hinton agar, 37° C., 20 hours, read-out: MIC
[9] = A. calcoaceticus /15473A, Muller-Hinton agar, 37° C., 20 hours, read-out: MIC
[10] = E. cloacae/1194E, Muller-Hinton agar, 37° C., 20 hours, read-out: MIC
[11] = K. aerogenes/1776E, Muller-Hinton agar, 37° C., 20 hours, read-out: MIC
[12] = S. marcescens/1826E, Muller-Hinton agar, 37° C., 20 hours, read-out: MIC
[13] = S. typhimunium/14028A, Muller-Hinton agar, 37° C., 20 hours, read-out: MIC

Structure (SMILES)	MIC (S. aureus/6538pA; [1])	MIC (S. aureus/giorigio; [2])	MIC (S. aureus/77; [3])	MIC (E. coli/10536; [4])	MIC (E. coli/3190Y; [5])	MIC (E. coli TEM1/1193E)	MIC (E. coli TEM5/3739E)	MIC (E. coli TEM9/2639E)	MIC (P. aeruginosa/1912E; [6])	MIC (P. aeruginosa/10145; [7])	MIC (P. aeruginosa/6065Y; [8])	MIC (A. calcoaceticus /15473A; [9])	MIC (E. cloacae/1194E; [10])	MIC (K. aerogenes/1776E; [11])	MIC (S. marcescens/1826E; [12])	MIC (S. typhimunium/14028A; [13])	MIC (S. aureus/6538pA; 20 h)	MIC (E. coli/10536; 20 h)	MIC (E. coli/3190Y; 20 h)	other results
Nc1nc(/C(=N/OC2(C(=O)O)CCCC2)C(=O)NC2C(=O)N3C(C(=O)[O-])=C(CSc4nc(N)c5c([n+]4N)CCC5)CSC23)cs1 (centres unmarked) [Compound I-11, 7-[(Z)-2-(2-aminothiazol-4-yl)-2-(1-carboxycyclopent-1-oxyimino)acetamido]-3-(1,4-diamino-1,5,6,7-tetrahydro-cyclopentapyrimidinium-2-yl)thiomethyl-3-cephem-4-carboxylate]	2 µg/mL (≈ 2.96 µM)	1 µg/mL (≈ 1.48 µM)	16 µg/mL (≈ 23.7 µM)	0.016 µg/mL (≈ 0.0237 µM)	≤ 0.008 µg/mL	0.13 µg/mL (≈ 0.192 µM)	0.25 µg/mL (≈ 0.37 µM)	2 µg/mL (≈ 2.96 µM)	0.5 µg/mL (≈ 0.74 µM)	1 µg/mL (≈ 1.48 µM)	8 µg/mL (≈ 11.8 µM)	1 µg/mL (≈ 1.48 µM)	4 µg/mL (≈ 5.92 µM)	0.13 µg/mL (≈ 0.192 µM)	0.25 µg/mL (≈ 0.37 µM)	0.25 µg/mL (≈ 0.37 µM)	–	–	–	–
C[n+]1c(SCC2=C(C(=O)[O-])N3C(=O)C(NC(=O)/C(=N\OC4(C(=O)O)CCCC4)c4csc(N)n4)C3SC2)nc(N)c2c1CCC2 (centres unmarked) [Compound I-12, 7-[(Z)-2-(2-aminothiazol-4-yl}-2-(1-carboxycyclopent-1-oxyimino)acetamido]-3-(4-amino-1-methyl-1,5,6,7-tetrahydro-cyclopenta-pyrimidinium-2-yl)thiomethyl-3-cephem-4-carboxylate]	2 µg/mL (≈ 2.96 µM)	2 µg/mL (≈ 2.96 µM)	8 µg/mL (≈ 11.9 µM)	0.016 µg/mL (≈ 0.0237 µM)	0.063 µg/mL (≈ 0.0934 µM)	0.13 µg/mL (≈ 0.193 µM)	0.5 µg/mL (≈ 0.741 µM)	4 µg/mL (≈ 5.93 µM)	1 µg/mL (≈ 1.48 µM)	2 µg/mL (≈ 2.96 µM)	16 µg/mL (≈ 23.7 µM)	2 µg/mL (≈ 2.96 µM)	8 µg/mL (≈ 11.9 µM)	0.13 µg/mL (≈ 0.193 µM)	0.25 µg/mL (≈ 0.37 µM)	0.25 µg/mL (≈ 0.37 µM)	–	–	–	–
C[C@H](O/N=C(\C(=O)NC1C(=O)N2C(C(=O)[O-])=C(CSc3nc(N)c4c([n+]3N)CCC4)CSC12)c1csc(N)n1)C(=O)O (stereo partly drawn) [I-5(S), 7-[(Z)-2-(2-aminothiazol-4-yl)-2-((S)-1-carboxyeth-1-oxyimino)acetamido]-3-(1,4-diamino-1,5,6,7-tetrahydro-cyclopentapyrimidinium-2-yl)thiomethyl-3-cephem-4-carboxylate]	–	2 µg/mL (≈ 3.15 µM)	8 µg/mL (≈ 12.6 µM)	–	–	0.031 µg/mL (≈ 0.0488 µM)	2 µg/mL (≈ 3.15 µM)	8 µg/mL (≈ 12.6 µM)	1 µg/mL (≈ 1.57 µM)	2 µg/mL (≈ 3.15 µM)	8 µg/mL (≈ 12.6 µM)	2 µg/mL (≈ 3.15 µM)	8 µg/mL (≈ 12.6 µM)	0.13 µg/mL (≈ 0.204 µM)	0.25 µg/mL (≈ 0.393 µM)	0.25 µg/mL (≈ 0.393 µM)	4 µg/mL (≈ 6.29 µM)	0.016 µg/mL (≈ 0.0252 µM)	≤ 0.008 µg/mL	–
C[C@H](O/N=C(\C(=O)NC1C(=O)N2C(C(=O)[O-])=C(CSc3nc(N)c4c([n+]3C)CCC4)CSC12)c1csc(N)n1)C(=O)O (stereo partly drawn) [I-6(S)]	4 µg/mL (≈ 6.3 µM)	2 µg/mL (≈ 3.15 µM)	4 µg/mL (≈ 6.3 µM)	0.016 µg/mL (≈ 0.0252 µM)	0.063 µg/mL (≈ 0.0993 µM)	0.13 µg/mL (≈ 0.205 µM)	1 µg/mL (≈ 1.58 µM)	4 µg/mL (≈ 6.3 µM)	1 µg/mL (≈ 1.58 µM)	2 µg/mL (≈ 3.15 µM)	4 µg/mL (≈ 6.3 µM)	4 µg/mL (≈ 6.3 µM)	4 µg/mL (≈ 6.3 µM)	0.13 µg/mL (≈ 0.205 µM)	0.25 µg/mL (≈ 0.394 µM)	0.25 µg/mL (≈ 0.394 µM)	–	–	–	–
CC(C)(O/N=C(\C(=O)N[C@@H]1C(=O)N2C(C(=O)[O-])=C(C[n+]3ccccc3)CS[C@H]12)c1csc(N)n1)C(=O)O [ceftazidime, Ceftazidime, reference compound]	–	–	–	–	–	0.28 µg/mL (≈ 0.512 µM)	8 µg/mL (≈ 14.6 µM)	> 128 µg/mL	–	–	–	–	–	–	–	–	16 µg/mL (≈ 29.3 µM)	0.063 µg/mL (≈ 0.115 µM)	0.031 µg/mL (≈ 0.0567 µM)	MIC (S. aureus/giorigio; 20 h): 4 µg/mL (≈ 7.32 µM); MIC (S. aureus/77; 20 h): 32 µg/mL (≈ 58.5 µM); MIC (P. aeruginosa/1912E; 20 h): 1 µg/mL (≈ 1.83 µM); MIC (P. aeruginosa/10145; 20 h): 2 µg/mL (≈ 3.66 µM); MIC (P. aeruginosa/6065Y; 20 h): 32 µg/mL (≈ 58.5 µM); MIC (A. calcoaceticus /15473A; 20 h): 2 µg/mL (≈ 3.66 µM); MIC (E. cloacae/1194E; 20 h): 64 µg/mL (≈ 117 µM); MIC (K. aerogenes/1776E; 20 h): 0.25 µg/mL (≈ 0.457 µM); MIC (S. marcescens/1826E; 20 h): 0.25 µg/mL (≈ 0.457 µM); MIC (S. typhimunium/14028A; 20 h): 0.25 µg/mL (≈ 0.457 µM)
